Several values for one entry are separate records, joined by “and”; a condition that tells them apart may be missing. Identical values can stand only once. Inconclusive results are not listed.
These compounds were tested on SK-MEL-5 MITF mRNA qPCR, delta-delta-Ct, overnight (assay: MITF transcript level reduction in melanoma cells – cell-based, RT-qPCR, SK-MEL-5, dry powder, dose response (AID 651773)).

Compound	AC40
O=C1C=C(NS(=O)(=O)c2cccs2)C(=O)c2ccccc21	542 nM
CC(C)N1CCN(C2=C(Nc3ccc(F)cc3F)C(=O)c3ccccc3C2=O)CC1	1590 nM
NC1=C(NS(=O)(=O)c2ccc(Br)cc2)C(=O)c2ccccc2C1=O	4920 nM
O=C1C(Nc2ccccc2)=C(c2ccccc2)C(=O)c2ccccc21	5040 nM
COC1=C(NS(=O)(=O)c2ccccc2)C(=O)c2ccccc2C1=O	1840 nM
O=C1C(NS(=O)(=O)c2cccs2)=C(c2ccccc2)C(=O)c2ccccc21	4940 nM
O=C1C=C(Nc2ccccc2)C(=O)c2ccccc21	175 nM and 189 nM
O=C1C(Nc2ccc(F)cc2)=C(N2CCCCC2)C(=O)c2ccccc21	6700 nM
O=C1C(Nc2ccc(Br)cc2)=C(N2CCCCC2)C(=O)c2ccccc21	9490 nM
NS(=O)(=O)c1ccc(NC2=CC(=O)c3ccccc3C2=O)cc1	115 nM
CC(C)N1CCN(C2=C(Nc3ccc(F)cc3)C(=O)c3ccccc3C2=O)CC1	5510 nM
CN1CCN(C2=C(NS(=O)(=O)c3ccc(Br)s3)C(=O)c3ccccc3C2=O)CC1	1330 nM
CN1CCN(C2=C(Nc3ccc(F)cc3F)C(=O)c3ccccc3C2=O)CC1	1820 nM
O=C1C=C(Nc2ccc([N+](=O)[O-])c(C(F)(F)F)c2)C(=O)c2ccccc21	86.8 nM
O=C1C(Nc2cccc(Cl)c2)=C(N2CCCC2)C(=O)c2ccccc21	10200 nM
NC1=C(NC(=O)c2ccccc2)C(=O)c2ccccc2C1=O	357 nM

Compound	AC40
O=C1C=C(NS(=O)(=O)c2ccc(Br)cc2)C(=O)c2ccccc21	631 nM
NC1=C(NS(=O)(=O)c2ccccc2)C(=O)c2ccccc2C1=O	2760 nM
CCN1CCN(C2=C(Nc3ccc(F)cc3F)C(=O)c3ccccc3C2=O)CC1	2280 nM
COC1=C(Nc2ccccc2)C(=O)c2ccccc2C1=O	386 nM
COC1=C(NS(=O)(=O)c2cccs2)C(=O)c2ccccc2C1=O	7800 nM
CCN1CCN(C2=C(NS(=O)(=O)c3ccc(Br)cc3)C(=O)c3ccccc3C2=O)CC1	3650 nM
NC1=C(NS(=O)(=O)c2cccs2)C(=O)c2ccccc2C1=O	1550 nM
O=C1C=C(NS(=O)(=O)c2ccccc2)C(=O)c2ccccc21	196 nM
COC1=C(NS(=O)(=O)c2ccc(Br)cc2)C(=O)c2ccccc2C1=O	6510 nM
O=C1C(Nc2ccc(Cl)cc2)=C(N2CCCC2)C(=O)c2ccccc21	9480 nM
CCN1CCN(C2=C(NC(=O)c3ccccc3)C(=O)c3ccccc3C2=O)CC1	1280 nM
O=C(NC1=C(Cl)C(=O)c2ccccc2C1=O)c1ccccc1	179 nM
C=CCNC1=C(Cl)C(=O)c2ccccc2C1=O	276 nM
Cc1ccc(NC2=CC(=O)c3ccccc3C2=O)cc1	1650 nM
NC1=CC(=O)c2ccccc2C1=O	372 nM
